# Data from patent publication US9150531B2, “Tricyclic lactones for treatment of cancer” (Glactone Pharma Development AB, priority 2010, dated 2015).
# Key:
# [1] = system: STAT-3 transcription factor; test: STAT3 inhibition, luciferase reporter (4xM67 pTATA TK-Luc) in HeLa cells stimulated with γ-Interferon; type: cell-based; details: Homo sapiens, γ-Interferon 8 h, luciferase activity, read-out: Anti STAT3 IC50
# Method: HeLa cells (4×10^4/ml) were transiently transfected with a luciferase reporter plasmid (4×M67 pTATA TK-Luc) driven by artificial promoter containing 4 repeated M67 binding sites in tandem for the STAT-3 transcription factor. The transfections were performed for 24 h using Roti-Fect reagent (Carl Roth, Karlsruhe, Germany) according to the manufacturer's recommendations. After incubation with different concentrations of the extracts for 30 min the transfected cells were stimulated for 8 h with γ-Interferon. Then, the cells were lysed in 25 mM Tris-phosphate pH 7.8, 8 mM MgCl2, 1 mM DTT, 1% Triton X-100, and 7% glycerol. Luciferase activity was measured as described for 5.1 cells.
# γ-Interferon induces an average of 5-6 fold induction of the luciferase activity compared to non stimulated cells and this represent the index of transactivation that is represented in our experiment as the maximum levels of γ-Interferon-induced STAT-3 activation (100%). Results below represent the IC50 for each compound in this assay. The IC50 means the concentration of each compound that reduces luciferase activity by 50% and it was calculated by GraphPad software.
# LNCaP-IL6 cells = test: WST-1 proliferation assay, LNCaP-IL6 cells; type: cell-based, human
# Method: (§1) The human prostate cancer cell lines DU145, LNCaP (from the American Type culture Collection, ATCC) and long-term interleukin-6 (IL-6) stimulated LNCaP cells (LNCaP-IL6 cells) (Hobisch, Ramoner et al. 2001) were used. The cells were cultured in RPMI 1640 medium supplemented with 10% FBS and 1% penicillin-streptomycin. All cells were incubated at 37° C. in a humidified atmosphere of […] and 5% CO2.
# (§2) WST-1 proliferation assay was performed to study the effects of the test items on the proliferation and viability of cultured prostate cancer cells. LNCaP and DU145 cells were cultured in 96-well plates at the density of 2 000 cells/well in 200 μl of medium. Cells were allowed to set for 24 h. The cells were treated with 0, 2.5, 5 or 10 μM of the specific substance for 24 h and 48 h. Samples were made in triplicate. 20 μl WST-1 solution (Roche Applied Science, Mannheim, Germany) was added per well and incubated at 37° C. for 4 h. The absorbance of each well was measured using a scanning multiwell spectrophotometer, ELISA reader at a wavelength of 450 nm and reference wavelength of 690 nm. The results are presented as percent of untreated control cells or the absorbance value.
# DU145 = test: WST-1 proliferation assay, DU145 cells (Example 16); type: cell-based, human
# Method: as §1, §2
structure (smiles),measurement,setting,value
"COC(=O)C1=C[C@H](C)C[C@H]2C[C@@H](c3ccccc3)[C@@H]3O[C@]123 (stereo in doubt) [Example 8, methyl 5-methyl-2-phenyl-1a,2,3,3a,4,5-hexahydroindeno[1,7a-b]oxirene-7-carboxylate]",IC50,[1],0.75 µM
same,% Proliferation (vs control) 24 h LNCaP-IL6,LNCaP-IL6 cells; 2.5 uM,69.23%
same,% Proliferation (vs control) 48 h LNCaP-IL6,LNCaP-IL6 cells; 2.5 uM,48.79%
same,% Proliferation (vs control) 24 h LNCaP-IL6,LNCaP-IL6 cells; 5 uM,58.97%
same,% Proliferation (vs control) 48 h LNCaP-IL6,LNCaP-IL6 cells; 5 uM,20.28%
same,% Proliferation (vs control) 24 h LNCaP-IL6,LNCaP-IL6 cells; 10 uM,52.67%
same,% Proliferation (vs control) 48 h LNCaP-IL6,LNCaP-IL6 cells; 10 uM,18.81%
same,% Proliferation (vs control) 24 h DU145,DU145; 2.5 uM,80.94%
same,% Proliferation (vs control) 48 h Du145,DU145; 2.5 uM,63.59%
same,% Proliferation (vs control) 24 h DU145,DU145; 5 uM,58.19%
same,% Proliferation (vs control) 48 h Du145,DU145; 5 uM,27.29%
same,% Proliferation (vs control) 24 h DU145,DU145; 10 uM,48.49%
same,% Proliferation (vs control) 48 h Du145,DU145; 10 uM,19.98%
"COC(=O)C1=C[C@H](C)C[C@H]2C[C@@H](Cc3ccccc3)[C@@H]3O[C@]123 (stereo in doubt) [Example 9, methyl 2-benzyl-5-methyl-1a,2,3,3a,4,5-hexahydroindeno[1,7a-b]oxirene-7-carboxylate]",IC50,[1],2.01 µM
same,% Proliferation (vs control) 24 h LNCaP-IL6,LNCaP-IL6 cells; 2.5 uM,92.78%
same,% Proliferation (vs control) 48 h LNCaP-IL6,LNCaP-IL6 cells; 2.5 uM,104.12%
same,% Proliferation (vs control) 24 h LNCaP-IL6,LNCaP-IL6 cells; 5 uM,90.02%
same,% Proliferation (vs control) 48 h LNCaP-IL6,LNCaP-IL6 cells; 5 uM,108.49%
same,% Proliferation (vs control) 24 h LNCaP-IL6,LNCaP-IL6 cells; 10 uM,96.73%
same,% Proliferation (vs control) 48 h LNCaP-IL6,LNCaP-IL6 cells; 10 uM,96.48%
same,% Proliferation (vs control) 24 h DU145,DU145; 2.5 uM,96.36%
same,% Proliferation (vs control) 48 h Du145,DU145; 2.5 uM,93.96%
same,% Proliferation (vs control) 24 h DU145,DU145; 5 uM,88.29%
same,% Proliferation (vs control) 48 h Du145,DU145; 5 uM,85.24%
same,% Proliferation (vs control) 24 h DU145,DU145; 10 uM,75.01%
same,% Proliferation (vs control) 48 h Du145,DU145; 10 uM,55.43%
"COC(=O)C1=C[C@H](C)C[C@H]2C[C@H](Cc3ccccc3)[C@@H]3O[C@]123 (stereo in doubt) [Example 10, methyl 2-benzyl-5-methyl-1a,2,3,3a,4,5-hexahydroindeno[1,7a-b]oxirene-7-carboxylate]",IC50,[1],2.98 µM
same,% Proliferation (vs control) 24 h LNCaP-IL6,LNCaP-IL6 cells; 2.5 uM,81.18%
same,% Proliferation (vs control) 48 h LNCaP-IL6,LNCaP-IL6 cells; 2.5 uM,74.81%
same,% Proliferation (vs control) 24 h LNCaP-IL6,LNCaP-IL6 cells; 5 uM,92.69%
same,% Proliferation (vs control) 48 h LNCaP-IL6,LNCaP-IL6 cells; 5 uM,80.02%
same,% Proliferation (vs control) 24 h LNCaP-IL6,LNCaP-IL6 cells; 10 uM,76.05%
same,% Proliferation (vs control) 48 h LNCaP-IL6,LNCaP-IL6 cells; 10 uM,23.18%
same,% Proliferation (vs control) 24 h DU145,DU145; 2.5 uM,86.82%
same,% Proliferation (vs control) 48 h Du145,DU145; 2.5 uM,88.02%
same,% Proliferation (vs control) 24 h DU145,DU145; 5 uM,98.85%
same,% Proliferation (vs control) 48 h Du145,DU145; 5 uM,92.54%
same,% Proliferation (vs control) 24 h DU145,DU145; 10 uM,66.76%
same,% Proliferation (vs control) 48 h Du145,DU145; 10 uM,28.27%
"COC(=O)C1=C[C@H](C)C[C@H]2CC(C)(C)[C@@H]3O[C@]123 (stereo in doubt) [Example 11, methyl 2,2,5-trimethyl-1a,2,3,3a,4,5-hexahydroindeno[1,7a-b]oxirene-7-carboxylate]",IC50,[1],2.49 µM
same,% Proliferation (vs control) 24 h LNCaP-IL6,LNCaP-IL6 cells; 2.5 uM,93.47%
same,% Proliferation (vs control) 48 h LNCaP-IL6,LNCaP-IL6 cells; 2.5 uM,78.36%
same,% Proliferation (vs control) 24 h LNCaP-IL6,LNCaP-IL6 cells; 5 uM,89.35%
same,% Proliferation (vs control) 48 h LNCaP-IL6,LNCaP-IL6 cells; 5 uM,71.85%
same,% Proliferation (vs control) 24 h LNCaP-IL6,LNCaP-IL6 cells; 10 uM,79.82%
same,% Proliferation (vs control) 48 h LNCaP-IL6,LNCaP-IL6 cells; 10 uM,31.62%
same,% Proliferation (vs control) 24 h DU145,DU145; 2.5 uM,93.88%
same,% Proliferation (vs control) 48 h Du145,DU145; 2.5 uM,85.06%
same,% Proliferation (vs control) 24 h DU145,DU145; 5 uM,80.42%
same,% Proliferation (vs control) 48 h Du145,DU145; 5 uM,67.77%
same,% Proliferation (vs control) 24 h DU145,DU145; 10 uM,72.14%
same,% Proliferation (vs control) 48 h Du145,DU145; 10 uM,45.51%
